From ChEMBL document CHEMBL1201862, “PubChem BioAssay data set” (2004)
Several values for one entry are separate records, joined by “and”; a condition that tells them apart may be missing. Equal values may be shown once. Activity calls are given as the source filed them.

What was measured:
[1] = target: Cytochrome P450 2D6 (Homo sapiens, UniProt P10635);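 also: CYP2D6 member of a cytochrome P450 panel assay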
[2] = target: Luciferin 4-monooxygenase (Photinus pyralis, UniProt P08659); assay: inhibition of purified Photinus pyralis luciferase – biochemical, luminescence, dose response (AID 1891)
Sequence of Luciferin 4-monooxygenase (P08659 whole entry): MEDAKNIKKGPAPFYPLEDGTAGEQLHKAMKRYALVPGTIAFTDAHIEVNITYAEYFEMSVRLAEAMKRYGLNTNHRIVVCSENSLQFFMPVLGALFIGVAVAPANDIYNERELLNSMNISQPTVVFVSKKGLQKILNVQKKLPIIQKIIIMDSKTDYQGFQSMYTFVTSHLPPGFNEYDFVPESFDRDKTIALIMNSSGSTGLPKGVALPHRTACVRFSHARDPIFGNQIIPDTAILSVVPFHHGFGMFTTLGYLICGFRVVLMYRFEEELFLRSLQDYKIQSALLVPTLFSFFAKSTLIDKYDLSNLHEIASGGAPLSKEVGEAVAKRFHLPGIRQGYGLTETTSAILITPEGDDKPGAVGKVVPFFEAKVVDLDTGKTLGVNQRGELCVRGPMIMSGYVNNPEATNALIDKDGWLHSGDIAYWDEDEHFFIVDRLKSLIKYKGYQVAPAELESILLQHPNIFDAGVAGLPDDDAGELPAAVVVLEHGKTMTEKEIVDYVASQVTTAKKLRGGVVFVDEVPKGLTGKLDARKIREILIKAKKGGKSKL

[3] = Luminescence Cell-Based Dose Confirmation HTS to Identify Inhibitors of Platelet Dense Granule Release. [Related pubchem assays: 1663 (Primary HTS), 1678 (Summary of Project)]; type: functional
[4] = target: Cytochrome P450 2C19 (Homo sapiens, UniProt P33261); assay: Cytochrome panel assay with activity outcomes. Panel member name: p450-cyp2c19 Compounds with AC50 equal or less than 10 uM are considered active; type: functional; details: read-out: AC50
Sequence of Cytochrome P450 2C19 (P33261 whole entry): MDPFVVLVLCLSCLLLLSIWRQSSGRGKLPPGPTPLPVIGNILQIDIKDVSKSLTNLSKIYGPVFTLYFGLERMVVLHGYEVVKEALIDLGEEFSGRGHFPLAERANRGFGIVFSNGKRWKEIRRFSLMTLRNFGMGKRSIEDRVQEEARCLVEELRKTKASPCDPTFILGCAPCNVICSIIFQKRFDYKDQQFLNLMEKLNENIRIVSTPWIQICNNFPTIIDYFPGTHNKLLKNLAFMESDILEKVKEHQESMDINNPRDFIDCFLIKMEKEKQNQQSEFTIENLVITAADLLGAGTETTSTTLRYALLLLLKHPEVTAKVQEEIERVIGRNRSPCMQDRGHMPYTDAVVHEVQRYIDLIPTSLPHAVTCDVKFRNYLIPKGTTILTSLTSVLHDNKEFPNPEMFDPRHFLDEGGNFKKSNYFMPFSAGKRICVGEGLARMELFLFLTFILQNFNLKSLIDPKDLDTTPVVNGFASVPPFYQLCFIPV

[5] = target: Cytochrome P450 3A4 (Homo sapiens, UniProt P08684);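 also: CYP3A4 tested as one member of a cytochrome P450 panel screen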
Sequence of Cytochrome P450 3A4 (P08684 whole entry): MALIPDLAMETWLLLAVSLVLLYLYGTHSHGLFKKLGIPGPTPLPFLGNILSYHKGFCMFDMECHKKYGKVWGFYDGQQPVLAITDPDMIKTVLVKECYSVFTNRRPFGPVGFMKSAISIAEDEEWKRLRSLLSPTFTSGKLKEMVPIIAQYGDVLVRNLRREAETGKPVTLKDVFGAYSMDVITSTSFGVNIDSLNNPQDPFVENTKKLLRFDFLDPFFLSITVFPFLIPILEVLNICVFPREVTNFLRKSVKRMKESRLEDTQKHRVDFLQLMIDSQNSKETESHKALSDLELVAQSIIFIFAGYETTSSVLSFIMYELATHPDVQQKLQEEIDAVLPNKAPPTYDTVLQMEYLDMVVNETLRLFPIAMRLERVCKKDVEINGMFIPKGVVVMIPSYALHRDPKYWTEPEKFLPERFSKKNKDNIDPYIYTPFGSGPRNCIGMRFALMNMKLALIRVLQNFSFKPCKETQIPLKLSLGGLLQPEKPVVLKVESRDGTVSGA

[6] = target: FAD-linked sulfhydryl oxidase ALR (Homo sapiens, UniProt P55789); assay: ALR-catalysed DTT oxidation blockers – biochemical, H2O2 detection, luminescence, cherry-pick, dose response (AID 493248)
Sequence of FAD-linked sulfhydryl oxidase ALR (P55789 whole entry): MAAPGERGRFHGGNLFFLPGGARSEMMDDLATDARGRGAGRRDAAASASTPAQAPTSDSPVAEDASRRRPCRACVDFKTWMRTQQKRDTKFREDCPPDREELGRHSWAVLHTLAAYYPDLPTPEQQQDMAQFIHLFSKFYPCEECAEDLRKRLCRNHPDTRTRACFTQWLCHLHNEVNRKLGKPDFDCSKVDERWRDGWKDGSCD

[7] = target: T1, Cytochrome P450 1A2 (Homo sapiens, UniProt P05177);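 also: PubChem cytochrome P450 panel assay, CYP1A2 panel member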
T1 sequence (P05177 whole entry): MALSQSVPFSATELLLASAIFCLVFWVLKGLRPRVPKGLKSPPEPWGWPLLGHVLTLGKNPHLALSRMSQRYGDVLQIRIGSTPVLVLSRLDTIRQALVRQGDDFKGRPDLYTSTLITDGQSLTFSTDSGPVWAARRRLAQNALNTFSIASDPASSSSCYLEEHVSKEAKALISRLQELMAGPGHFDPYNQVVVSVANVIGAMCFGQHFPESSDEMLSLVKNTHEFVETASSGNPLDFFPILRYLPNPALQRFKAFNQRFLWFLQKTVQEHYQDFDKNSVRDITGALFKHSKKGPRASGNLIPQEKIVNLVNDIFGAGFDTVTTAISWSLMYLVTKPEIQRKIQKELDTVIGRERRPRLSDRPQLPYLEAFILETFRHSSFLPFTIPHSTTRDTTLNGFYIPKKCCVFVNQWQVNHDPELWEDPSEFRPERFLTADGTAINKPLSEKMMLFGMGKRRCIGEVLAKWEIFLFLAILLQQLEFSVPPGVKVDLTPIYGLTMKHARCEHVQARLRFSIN

[8] = target: T2, Rac GTPase-activating protein 1 (Homo sapiens, UniProt Q9H0H5); assay: blockers of MgcRacGAP-driven Rac1 GTP hydrolysis – biochemical, ADP Hunter fluorescence, primary and confirmatory, confirmation (AID 624330); type: functional
T2 sequence (Q9H0H5 whole entry): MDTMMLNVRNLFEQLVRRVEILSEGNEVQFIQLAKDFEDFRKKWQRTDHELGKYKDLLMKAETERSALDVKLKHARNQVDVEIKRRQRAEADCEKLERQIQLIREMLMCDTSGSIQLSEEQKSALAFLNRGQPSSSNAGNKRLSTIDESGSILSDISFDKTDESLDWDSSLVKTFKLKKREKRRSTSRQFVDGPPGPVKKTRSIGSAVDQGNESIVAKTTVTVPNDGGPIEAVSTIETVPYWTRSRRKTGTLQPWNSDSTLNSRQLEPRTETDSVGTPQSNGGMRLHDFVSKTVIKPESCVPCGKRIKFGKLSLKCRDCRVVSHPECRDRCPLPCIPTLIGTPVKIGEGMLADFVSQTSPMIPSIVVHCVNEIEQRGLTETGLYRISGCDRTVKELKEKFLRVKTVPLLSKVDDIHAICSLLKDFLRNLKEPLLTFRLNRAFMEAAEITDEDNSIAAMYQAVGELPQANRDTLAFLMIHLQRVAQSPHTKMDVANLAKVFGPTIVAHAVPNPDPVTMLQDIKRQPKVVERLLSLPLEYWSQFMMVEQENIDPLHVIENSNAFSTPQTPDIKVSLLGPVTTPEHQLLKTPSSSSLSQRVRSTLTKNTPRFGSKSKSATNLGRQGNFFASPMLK

[9] = target: T3, Corticotropin-releasing factor receptor 2/Corticotropin-releasing factor-binding protein (Homo sapiens, UniProt P24387+Q13324); assay: Dose Response confirmation of uHTS hits for small molecule antagonists of the CRF-binding protein and CRF-R2 receptor complex.; type: functional; details: read-out: IC50_Mean
T3 sequence (Q13324 whole entry): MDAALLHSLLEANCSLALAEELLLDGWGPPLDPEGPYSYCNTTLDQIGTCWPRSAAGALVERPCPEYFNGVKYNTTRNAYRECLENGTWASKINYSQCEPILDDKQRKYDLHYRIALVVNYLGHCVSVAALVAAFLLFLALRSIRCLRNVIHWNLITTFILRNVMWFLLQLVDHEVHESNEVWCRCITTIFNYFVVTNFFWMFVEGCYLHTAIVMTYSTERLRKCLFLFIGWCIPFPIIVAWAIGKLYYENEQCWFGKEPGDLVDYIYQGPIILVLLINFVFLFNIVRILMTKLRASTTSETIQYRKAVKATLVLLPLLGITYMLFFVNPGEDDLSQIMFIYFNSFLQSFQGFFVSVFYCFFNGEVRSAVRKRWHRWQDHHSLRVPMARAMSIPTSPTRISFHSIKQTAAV
T3 sequence (P24387 whole entry): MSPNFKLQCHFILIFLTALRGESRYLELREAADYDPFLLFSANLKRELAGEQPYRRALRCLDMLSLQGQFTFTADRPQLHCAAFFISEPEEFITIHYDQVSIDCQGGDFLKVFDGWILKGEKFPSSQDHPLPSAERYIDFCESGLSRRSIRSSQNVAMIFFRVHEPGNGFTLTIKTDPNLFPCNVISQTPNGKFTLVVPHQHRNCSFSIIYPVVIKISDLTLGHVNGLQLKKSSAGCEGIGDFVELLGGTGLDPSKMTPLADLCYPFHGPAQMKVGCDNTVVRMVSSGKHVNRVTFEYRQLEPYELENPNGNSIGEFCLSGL

[10] = target: T3, Corticotropin-releasing factor receptor 2/Corticotropin-releasing factor-binding protein; assay: activators of CRF receptor 2 with binding protein – uHTS hits, confirmation (AID 602473); type: functional; details: read-out: EC50_Mean
[11] = viability of uninfected HEp-2 cells – cell-based, HTS, cytotoxicity control for RSV inhibitor project, dose response (AID 2410); type: functional; details: human respiratory syncytial virus

Sequence of Cytochrome P450 2D6 (P10635 whole entry): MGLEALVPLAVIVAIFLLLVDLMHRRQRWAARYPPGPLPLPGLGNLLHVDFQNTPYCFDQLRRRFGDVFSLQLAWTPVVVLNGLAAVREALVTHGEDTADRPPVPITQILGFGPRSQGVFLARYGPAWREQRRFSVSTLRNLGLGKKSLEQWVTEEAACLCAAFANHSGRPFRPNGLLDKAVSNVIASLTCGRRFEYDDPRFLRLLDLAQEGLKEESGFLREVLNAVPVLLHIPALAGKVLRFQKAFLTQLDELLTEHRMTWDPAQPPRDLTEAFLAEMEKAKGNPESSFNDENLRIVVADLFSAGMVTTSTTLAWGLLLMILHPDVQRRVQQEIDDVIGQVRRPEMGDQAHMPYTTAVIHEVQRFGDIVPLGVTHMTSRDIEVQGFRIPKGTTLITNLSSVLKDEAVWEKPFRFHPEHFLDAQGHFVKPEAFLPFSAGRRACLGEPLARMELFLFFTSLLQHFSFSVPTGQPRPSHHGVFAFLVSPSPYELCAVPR

Q: For `CC(Cc1ccccc1)C(=O)NCc1ccccn1` (stereo not drawn), which AC50 [1] is on record?
A: 39.8 µM (inconclusive)

Q: Which EC50 [2] does the source give for `CCOC(=O)C(CC)n1cnc2c(nnn2-c2ccc(F)cc2)c1=O` (stereo not drawn) here?
A: > 112 µM (not active)

Q: And the EC50 [3]?
A: > 112 µM (not active)

Q: With `COc1ccc(-n2c(=O)c(-c3ccccc3)nc3cncnc32)cc1` as the molecule, how does the AC50 [4] read?
A: 39.8 µM (inconclusive)

Q: What about the AC50 [1] of the same molecule?
A: 25.1 µM (inconclusive)

Q: And the AC50 [5]?
A: 15.8 µM (inconclusive)

Q: Which AC50 [6] does the source give for `CC(C)=NNc1nc(-c2ccc(N3C(=O)CCC3=O)cc2)cs1` here?
A: 0.119 µM (active)

Q: Which AC50 [1] does the source give for `CCN(CC)CCNC(=O)c1cc(Cl)c(N)cc1OC` [METOCLOPRAMIDE] here?
A: 6.31 µM (inconclusive) and 15.8 µM (inconclusive)

Q: What about the AC50 [7] of the same molecule?
A: 15.8 µM (inconclusive)

Q: Which IC50 [8] does the source give for `CCOc1cc(N2CCOCC2)c(OCC)cc1NCC(=O)N1CCN(Cc2ccccc2)CC1` here?
A: 64.2 µM (active)

Q: With `C=CCn1c(S)nnc1C(C)NC(=O)c1cccc(C)c1` (stereo not drawn) as the molecule, how does the AC50 [6] read?
A: 4.01 µM (active)

Q: For `COc1ccccc1N1CCN(C(=O)C(=O)c2cn(CC(=O)N3CCCC3)c3ccccc23)CC1`, which IC50 [9] is on record?
A: > 47.1 µM (inactive)

Q: And the EC50 [10]?
A: > 53 µM (inactive)

Q: For `CC(C(=O)Nc1ccccc1C(F)(F)F)N1CCN(C)CC1` (stereo not drawn), which IC50 [8] is on record?
A: 163 µM (active)

Q: What does the source list for `Cc1ccc(OCC(=O)Nc2ccc([N+](=O)[O-])cn2)cc1C`?
A: IC50 [9]: > 47.1 µM (inactive); EC50 [10]: > 53 µM (inactive)

Q: For `CC(=O)c1ccc(NC(=O)C(C)OC(=O)c2ccc(Br)o2)cc1` (stereo not drawn), which IC50 [9] is on record?
A: > 47.1 µM (inactive)

Q: What about the EC50 [10] of the same molecule?
A: > 53 µM (inactive)

Q: Which results are given for `COc1ccc(C(=O)COC(=O)CCNS(=O)(=O)c2ccc(NC(C)=O)cc2)c(OC)c1`?
A: IC50 [9]: > 47.1 µM (inactive); EC50 [10]: > 53 µM (inactive)

Q: For `Cc1cccc(NC(=O)CSc2nc(COc3ccccc3)nc3ccccc23)c1C`, which AC50 [1] is on record?
A: 12.6 µM (inconclusive)

Q: What about the AC50 [7] of the same molecule?
A: 12.6 µM (inconclusive)

Q: Which EC50 [2] does the source give for `CC12CCC(C(=O)NNc3ccccc3)(C(=O)C1=O)C2(C)C` (stereo not drawn) here?
A: > 112 µM (not active)

Q: What about the EC50 [3] of the same molecule?
A: > 112 µM (not active)

Q: For `Cc1ccc(C)c(NC(=O)c2cc(S(=O)(=O)N3CCOCC3)cn2C)c1`, which EC50 [2] is on record?
A: > 112 µM (not active)

Q: What about the EC50 [3] of the same molecule?
A: > 112 µM (not active)

Q: Which AC50 [6] does the source give for `COc1ccc(C(=O)N2CCN=C2SCc2cccnc2)c(OC)c1` here?
A: 0.067 µM (active)

Q: With `CCN(CCNC(=O)C1CCN(S(=O)(=O)c2cccc3nsnc23)CC1)c1ccccc1` as the molecule, how does the AC50 [6] read?
A: 4.69 µM (active)

Q: What does the source list for `O=C(Nc1ccc(Nc2ccccc2)cc1)c1ccco1`?
A: CC50 [11]: 45.1 µM (active); AC50 [6]: 5.94 µM (active)

Q: With `CCN(CC)CCNC(=O)C(C)c1nn(C)c(=O)c2ccccc12` (stereo not drawn) as the molecule, how does the AC50 [1] read?
A: 20 µM (inconclusive)

Q: Which results are given for `COC(=O)C1=C2SC(C)C(=O)N2C(N)=C(C#N)C1c1ccc(OC)c(OC)c1` (stereo not drawn)?
A: EC50 [2]: > 112 µM (not active); EC50 [3]: > 112 µM (not active)
